# Reference: patent US20230292776A1, “GAS PHASE TREATMENT OF PRODUCE” (priority 2022, published 2023)
# Assays:
# [1] = test system: Penicillium digitatum (Pd); test: Antifungal activity of vapor against Penicillium digitatum (Pd) in wounded, infected mandarins; format: in vivo; conditions: for effect on Pd mold: Example 5, 125 μL, assessed after 6 days
# Description: (§1) Example 1. The antifungal activity of diallyl disulfide (DADS) vapor against Penicillium digitatum (Pd) was tested in mandarins. All samples were wounded by puncturing with a screw and infected by dispensing 1000 Pd spores suspended in 10 μL of water into each wound. The test groups consisted of mandarins that were: untreated; dipped in a solution of 1 g/L of imazalil; and exposed for 72 hours to the vapor of 3 mL of DADS in a Petri dish.
# (§2) Example 2. The antifungal activity of allyl isothiocyanate (AITC) and DADS vapor was tested against Pd and Penicillium italicum (Pi) in mandarins. All samples were wounded by puncturing with a screw. Mandarins were infected by dispensing either 1000 Pd spores or 1000 Pi spores suspended in 10 μL into the wound. The test groups consisted of mandarins that were: uninfected and untreated; uninfected and treated by dipping in a solution of 1 g/L of imazalil; infected with Pd and untreated; infected with Pd and exposed to AITC; infected with Pd and exposed to DADS; infected with Pi and untreated; infected with Pi and exposed to AITC; and infected with Pi and exposed to DADS. Exposure to AITC or DADS consisted of exposing the mandarins for 72 hours to the vapor of 3 mL of the respective compound dispensed in a Petri dish.
# (§3) Example 3. The antifungal activity of a reduced dose of AITC vapor against Pd in mandarins was tested. All samples were wounded by puncturing with a screw. Mandarins were infected by dispensing 1000 Pd spores suspended in 10 μL of water into each wound. The test groups consisted of mandarins that were: uninfected and untreated; infected with Pd and untreated; and exposed to the vapor of 500 μL of AITC in a Petri dish for 72 hours.
# Example 4. The antifungal activity of a range of AITC vapor concentrations was tested against Pd in mandarins. All mandarins were wounded by puncturing with a screw and infected by dispensing 1000 Pd spores suspended in 10 μL of water in each wound. The fruit was then placed in an airtight container, a range of AITC volumes were disposed onto a Whatman filter paper disc, the disc was suspended in front of a battery-powered fan, and the container closed for 18 hours. The mandarins were then left at ambient temperature and high humidity for 6 days. The test groups were mandarins that were infected and untreated, and infected and treated with 62.5 μL 125 μL 250 μL and 500 μL on the filter paper disc. […] FIG. 6 is a bar graph showing incidence (% infected) for the test groups.
# Example 5. The antifungal activity of a range of AITC vapor exposure times was tested to determine the effects against Pd in mandarins. All samples were wounded by puncturing with a screw. Mandarins were infected by dispensing 1000 Pd spores suspended in 10 μL of water in the wound. The fruit was then placed in an airtight container, 125 μL of AITC was dispensed onto a Whatman filter paper disc, the disc suspended in front of a battery-powered fan, and the container closed for 15 minutes to 2 hours. The test groups were then left at ambient temperature, high humidity, and assessed for Pd mold after 6 days. The test groups consisted of mandarins that were: uninfected and untreated; infected and untreated; infected and treated with 0.5 g/L imazalil; infected, treated with 125 μL of AITC on the filter paper, and exposed to the vapor for 15 minutes, 30 minutes, 1 hour, and 2 hours.
# [2] = test system: mandarins; test: Visible appearance of vapor-treated mandarins; format: in vivo, mandarin
# Description: as §1
# as §2, with “dish. […] DADS vapor reduced the incidence of Pd mold by 85% and Pi mold by 30% compared to the respective untreated/infected test groups. […] Both AITC and DADS were effective at preventing fungal growth. The inhibition from AITC was approximately 100%, with some changes in visible appearance.” for “dish.”
# as §3
# Example 4. The antifungal activity of a range of AITC vapor concentrations was tested against Pd in mandarins. All mandarins were wounded by puncturing with a screw and infected by dispensing 1000 Pd spores suspended in 10 μL of water in each wound. The fruit was then placed in an airtight container, a range of AITC volumes were disposed onto a Whatman filter paper disc, the disc was suspended in front of a battery-powered fan, and the container closed for 18 hours. The mandarins were then left at ambient temperature and high humidity for 6 days. The test groups were mandarins that were infected and untreated, and infected and treated with 62.5 μL 125 μL 250 μL and 500 μL on the filter paper disc. […]
# Example 5. […] The test groups were then left at ambient temperature, high humidity, and assessed for Pd mold after 6 days. […]
# [3] = test system: grapes; test: Visible appearance of vapor-treated grapes; format: in vivo, grape
# Description: Example 12. The antifungal activity of AITC and DADS vapor against Botrytis cinerea (Bc) in grapes was tested. All samples were wounded by making a 3 mm deep puncture in the skin. Samples were infected by dispensing 1000 Bc spores suspended in 10 μL of water in the wound. The test groups consisted of grapes that were: uninfected and untreated; infected and untreated; exposed to the vapor of 3 mL of AITC in a Petri dish for 72 hours; and exposed to the vapor of 3 mL of DADS in a Petri dish for 72 hours. FIG. 17 quantifies the infection results. […] Both AITC and DADS vapor were effective at controlling Bc mold. Treatment with AITC can potentially lead to changes in color or flavor of the grapes.
smiles,measurement,setting,value
"C=CCN=C=S [AITC, allyl isothiocyanate]",Pd infection,"[1]; Example 3, mandarins, vapor of 500 μL in a Petri dish for 72 hours",substantially prevented Pd infections
same,severity of Pd infection,"[1]; Example 4, 62.5 μL on filter paper disc, airtight container with fan, 18 hours, 6 days",reduced the severity of infection relative to the untreated group
same,effect on Pd mold,[1]; 15 minute exposure,little effect on Pd mold
same,effect on Pd mold,[1]; 2 hour exposure,substantially eliminated the mold
same,fruit with spotting and darkening of the peel,"[2]; Example 5, 125 μL, 2 hour treatment",62.5%
same,visible appearance of mandarins,[2]; in vivo,visibly darker than untreated fruit
same,visible appearance of grapes,[3]; in vivo,darkening of the fruit
"C=CCSSCC=C [DADS, diallyl disulfide]",reduction of the incidence of Pd mold compared to the untreated samples,"[1]; Example 1, mandarins, 72 hours vapor of 3 mL in a Petri dish",95.8%
same,reduction of the incidence of Pd mold compared to imazalil treated samples,"[1]; Example 1, mandarins, 72 hours vapor of 3 mL, imazalil 1 g/L dip",19.1%
same,reduction of the incidence of Pd mold compared to untreated/infected test group,"[1]; Example 2, mandarins, 72 hours vapor of 3 mL in a Petri dish",85%
same,visible appearance of mandarins,"[2]; Example 1, 72 hours vapor of 3 mL",no visible degradation or discoloration
same,visible appearance of mandarins,"[2]; Example 2, 72 hours vapor of 3 mL",No difference in appearance
same,visible appearance of grapes,"[3]; Example 12, vapor of 3 mL for 72 hours",appeared unchanged
